Source: PubChem BioAssay AID2400 (Broad Institute, 2010)
“And” between values parts separate entries of the source, which are not always exact repeats. Equal values may be shown once. The source made the active and inactive calls.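 How the source made its calls: active means fitted EC50 at or below ten times the top tested concentration; inconclusive means flat fit with activity between 30% and 70%, or an unusable fit; inactive means EC50 beyond ten times the top tested concentration.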

System: S. cerevisiae GRE-beta-galactosidase reporter, luminescence, 75 min
Test: steroid-induced GRE reporter decrease in yeast – S. cerevisiae, luminescence, Hsp90 inhibitor project, dose response (AID 2400)

CC1CCC(C(C)C)C(OC(=O)Cn2c(-c3ccc(Br)cc3)[n+](C)c3ccccc32)C1 (configuration not stated)
EC50: > 16 µM (inactive)

NC(=NCCCCCCN=C(N)/N=C(\N)Nc1ccc(Cl)cc1)/N=C(\N)Nc1ccc(Cl)cc1
EC50: > 16 µM (inactive) and > 15 µM (inactive)
